Laboratory results published in PubChem BioAssay AID2060883 (Molecular Pharmacology Branch, DTP, NCI, 2025).
pIC50: −log10 of the molar value.

Tested on: 843782-103-R-J1-PDC complex spheroid viability
Experiment: Anticancer human tumor 843782-103-R-J1-PDC patient-derived lung adenocarcinoma cell line growth inhibition [RAS]
Settings: for pIC50: curve of first compound; for viability, T/C: stronger effect = lower value
Outline: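 Multi-cell-type spheroids: tumor cells plus HUVEC endothelial cells and mesenchymal stem cells. RAS-pathway inhibitors were combined with targeted agents, each dosed in half-log steps down from clinical Cmax, or from 10 microM when Cmax was unknown.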

[1] = second compound 0.00316 µM, first compound 0.0316 µM
[2] = second compound 0.00316 µM, first compound 0.1 µM
[3] = second compound 0.00316 µM, first compound 0.316 µM
[4] = second compound 0.00316 µM, first compound 1 µM
[5] = second compound 0.01 µM, first compound 0.0316 µM
[6] = second compound 0.01 µM, first compound 0.1 µM
[7] = second compound 0.01 µM, first compound 0.316 µM
[8] = second compound 0.01 µM, first compound 1 µM
[9] = second compound 0.0316 µM, first compound 0.0316 µM
[10] = second compound 0.0316 µM, first compound 0.1 µM
[11] = second compound 0.0316 µM, first compound 0.316 µM
[12] = second compound 0.0316 µM, first compound 1 µM
[13] = second compound 0.1 µM, first compound 0.0316 µM
[14] = second compound 0.1 µM, first compound 0.1 µM
[15] = second compound 0.1 µM, first compound 0.316 µM
[16] = second compound 0.1 µM, first compound 1 µM
[17] = second compound 0.316 µM, first compound 0.0316 µM
[18] = second compound 0.316 µM, first compound 0.1 µM
[19] = second compound 0.316 µM, first compound 0.316 µM
[20] = second compound 0.316 µM, first compound 1 µM
[21] = second compound 1 µM, first compound 0.0316 µM
[22] = second compound 1 µM, first compound 0.1 µM
[23] = second compound 1 µM, first compound 0.316 µM
[24] = second compound 1 µM, first compound 1 µM
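Further: viability read after seven days of compound exposure.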

SMILES: CCC(CC)c1cc(NC2CCC(N)C2)n2nccc2n1 (stereo unspecified) + C=CC(=O)N1CCN(c2nc(OCC3CCCN3C)nc3c(F)c(-c4nc(N)cc(C)c4C(F)(F)F)c(Cl)cc23)C(C)C1
- pIC50 (second compound 0.00316 µM): 5.85
- pIC50 (second compound 0.01 µM): 5.82
- pIC50 (second compound 0.0316 µM): 5.85
- pIC50 (second compound 0.1 µM): 5.83
- pIC50 (second compound 0.316 µM): 5.85
- pIC50 (second compound 1 µM): 5.79
- viability, T/C [1]: 99.4%
- viability, T/C [2]: 87.9%
- viability, T/C [3]: 91.9%
- viability, T/C [4]: 71.3%
- viability, T/C (second compound 0.00316 µM, first compound 3.16 µM): 1.31%
- viability, T/C (second compound 0.00316 µM, first compound 10 µM): 0.48%
- viability, T/C [5]: 94.5%
- viability, T/C [6]: 88.3%
- viability, T/C [7]: 84.7%
- viability, T/C [8]: 76.2%
- viability, T/C (second compound 0.01 µM, first compound 3.16 µM): 1.43%
- viability, T/C (second compound 0.01 µM, first compound 10 µM): 0.54%
- viability, T/C [9]: 91.6%
- viability, T/C [10]: 88.5%
- viability, T/C [11]: 83.3%
- viability, T/C [12]: 71.2%
- viability, T/C (second compound 0.0316 µM, first compound 3.16 µM): 1.09%
- viability, T/C (second compound 0.0316 µM, first compound 10 µM): 0.49%
- viability, T/C [13]: 79.9%
- viability, T/C [14]: 87.6%
- viability, T/C [15]: 90.6%
- viability, T/C [16]: 75.3%
- viability, T/C (second compound 0.1 µM, first compound 3.16 µM): 1.17%
- viability, T/C (second compound 0.1 µM, first compound 10 µM): 0.4%
- viability, T/C [17]: 91.7%
- viability, T/C [18]: 84.8%
- viability, T/C [19]: 88.6%
- viability, T/C [20]: 71%
- viability, T/C (second compound 0.316 µM, first compound 3.16 µM): 1.54%
- viability, T/C (second compound 0.316 µM, first compound 10 µM): 0.46%
- viability, T/C [21]: 88.4%
- viability, T/C [22]: 87.1%
- viability, T/C [23]: 88.7%
- viability, T/C [24]: 86.1%
- viability, T/C (second compound 1 µM, first compound 3.16 µM): 0.8%
- viability, T/C (second compound 1 µM, first compound 10 µM): 0.59%

SMILES: O=C(c1ccc(F)c(F)c1Nc1ccc(I)cc1F)N1CC(O)([C@@H]2CCCCN2)C1 + C=CC(=O)N1CCN(c2nc(OCC3CCCN3C)nc3c(F)c(-c4nc(N)cc(C)c4C(F)(F)F)c(Cl)cc23)C(C)C1
- pIC50 (second compound 0.00316 µM): 6.76
- pIC50 (second compound 0.01 µM): 6.79
- pIC50 (second compound 0.0316 µM): 6.88
- pIC50 (second compound 0.1 µM): 6.92
- pIC50 (second compound 0.316 µM): 6.85
- pIC50 (second compound 1 µM): 6.86
- viability, T/C (second compound 0.00316 µM, first compound 0.00316 µM): 85.4%
- viability, T/C (second compound 0.00316 µM, first compound 0.01 µM): 92%
- viability, T/C [1]: 77.5%
- viability, T/C [2]: 61%
- viability, T/C [3]: 38.4%
- viability, T/C [4]: 24.3%
- viability, T/C (second compound 0.01 µM, first compound 0.00316 µM): 87.5%
- viability, T/C (second compound 0.01 µM, first compound 0.01 µM): 85.4%
- viability, T/C [5]: 73.2%
- viability, T/C [6]: 59.5%
- viability, T/C [7]: 37.9%
- viability, T/C [8]: 23.5%
- viability, T/C (second compound 0.0316 µM, first compound 0.00316 µM): 83.4%
- viability, T/C (second compound 0.0316 µM, first compound 0.01 µM): 80.2%
- viability, T/C [9]: 71%
- viability, T/C [10]: 53.6%
- viability, T/C [11]: 36.8%
- viability, T/C [12]: 20.9%
- viability, T/C (second compound 0.1 µM, first compound 0.00316 µM): 89.6%
- viability, T/C (second compound 0.1 µM, first compound 0.01 µM): 79.6%
- viability, T/C [13]: 68.6%
- viability, T/C [14]: 52.7%
- viability, T/C [15]: 35.9%
- viability, T/C [16]: 19.7%
- viability, T/C (second compound 0.316 µM, first compound 0.00316 µM): 84.5%
- viability, T/C (second compound 0.316 µM, first compound 0.01 µM): 79.9%
- viability, T/C [17]: 68.3%
- viability, T/C [18]: 51.6%
- viability, T/C [19]: 42%
- viability, T/C [20]: 25.9%
- viability, T/C (second compound 1 µM, first compound 0.00316 µM): 88.8%
- viability, T/C (second compound 1 µM, first compound 0.01 µM): 75.5%
- viability, T/C [21]: 70.8%
- viability, T/C [22]: 53.8%
- viability, T/C [23]: 38.5%
- viability, T/C [24]: 25.5%

SMILES: CCc1c2c(nc3ccc(O)cc13)-c1cc3c(c(=O)n1C2)COC(=O)[C@]3(O)CC
- viability, T/C (compound 0.000949 µM): 94.2% [middle of 4 runs]
- viability, T/C (compound 0.003 µM): 26% [middle of 4 runs]
- viability, T/C (compound 0.00949 µM): 6.94% [middle of 4 runs]
- viability, T/C (compound 0.03 µM): 3.31% [middle of 4 runs]
- viability, T/C (compound 0.0949 µM): 1.33% [middle of 4 runs]
- viability, T/C (compound 0.3 µM): 0.94% [middle of 4 runs]
- IC50 (curve of compound): 1.88 nM [middle of 4 runs]
